# Where two headings read alike, the source gives them in different places.
# Key:
# [1] = Tolerability in mouse PDAC models; assay type: in vivo; details: >6 months
# Description: In our KPC mouse and human PDX in vivo models of PDAC, PXS-5505 reduces collagen deposition and tumor stiffness and improves perfusion of agents into the primary tumor site. […] These in vivo findings match the in vitro organotypic data showing reductions in local invasion. Furthermore, addition of PXS-5505 to gemcitabine treatment extends median survival in the KPC model by approximately 45% and decreases metastatic deposits within the liver compared to gemcitabine alone.
# [2] = target: T1, LOXL2 (Homo sapiens, UniProt Q9Y4K0); assay: Time-dependent inhibition with pre-incubation 0-240 min (Fig. 2e); assay type: biochemical; details: for remaining activity at 30 µM: log conc -4.52288; for remaining activity at 30 µM / remaining activity at 10 µM / remaining activity at 3.333 µM / remaining activity at 1.111 µM / remaining activity at 0.3704 µM / remaining activity at 0.12346 µM / remaining activity at 0.04115 µM / remaining activity at 0.013717 µM / remaining activity at 0.004572 µM / remaining activity at 0.001524 µM / remaining activity at 0.0005081 µM / remaining activity at 0.0001694 µM: read-out: LOXL2 specific activity; for remaining activity at 10 µM: log conc -5; for remaining activity at 3.333 µM: log conc -5.47712; for remaining activity at 1.111 µM: log conc -5.95424; for remaining activity at 0.3704 µM: log conc -6.43136; for remaining activity at 0.12346 µM: log conc -6.90849; for remaining activity at 0.04115 µM: log conc -7.38561; for remaining activity at 0.013717 µM: log conc -7.86273; for remaining activity at 0.004572 µM: log conc -8.33985; for remaining activity at 0.001524 µM: log conc -8.81697; for remaining activity at 0.0005081 µM: log conc -9.29409; for remaining activity at 0.0001694 µM: log conc -9.77121
# T1 sequence (Q9Y4K0 26-774): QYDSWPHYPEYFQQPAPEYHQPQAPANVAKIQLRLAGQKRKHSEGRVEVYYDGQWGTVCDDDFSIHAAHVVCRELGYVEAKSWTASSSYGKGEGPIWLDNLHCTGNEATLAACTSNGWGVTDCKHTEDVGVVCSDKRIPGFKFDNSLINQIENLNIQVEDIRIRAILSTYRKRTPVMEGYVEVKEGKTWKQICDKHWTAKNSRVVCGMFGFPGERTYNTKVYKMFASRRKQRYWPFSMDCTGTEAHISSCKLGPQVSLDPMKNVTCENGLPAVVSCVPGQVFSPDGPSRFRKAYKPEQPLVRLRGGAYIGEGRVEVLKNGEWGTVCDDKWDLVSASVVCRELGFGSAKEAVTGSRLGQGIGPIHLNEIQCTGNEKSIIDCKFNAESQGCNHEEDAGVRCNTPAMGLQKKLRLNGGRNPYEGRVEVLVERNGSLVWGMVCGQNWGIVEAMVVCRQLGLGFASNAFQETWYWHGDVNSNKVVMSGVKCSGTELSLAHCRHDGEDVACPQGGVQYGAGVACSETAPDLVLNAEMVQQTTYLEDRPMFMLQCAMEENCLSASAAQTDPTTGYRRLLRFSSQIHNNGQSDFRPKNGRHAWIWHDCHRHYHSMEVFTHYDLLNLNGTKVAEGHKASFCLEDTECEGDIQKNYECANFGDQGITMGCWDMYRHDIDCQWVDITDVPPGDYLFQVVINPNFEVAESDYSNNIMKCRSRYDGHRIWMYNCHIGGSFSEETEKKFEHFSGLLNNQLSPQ
# Description: Data are presented as mean ± s.d. […] Data presented as mean ± s.d. […] Source data TEXT PRINTED IN THE PICTURE: (b) PXS-5505: Recombinant DAO IC50 (nM): >30,000; Recombinant SSAO/VAP1 IC50 (nM): >30,000; Recombinant MAO-A IC50 (nM): >30,000; Recombinant MAO-B IC50 (nM): >30,000 | (f) PXS-5505: Fibroblast LOX IC50 (nM): 4,930; Recombinant LOXL-1 IC50 (nM): 1,590; Recombinant LOXL-2 IC50 (nM): 570; Recombinant LOXL-3 IC50 (nM): 1,800; Recombinant LOXL-4 IC50 (nM): 190
# Similar to other fluoroallylamine-based amine oxidase inhibitors, the mode of inhibition is assumed to be a two-step mechanism (Fig. 2c), with PXS-5505 reacting with the unique LTQ cofactor found within the active site. The fluoroallylamine facilitates the formation of a covalent, irreversible bond. […] Furthermore, in jump dilution experiments, there is no significant recovery of activity following rapid dilution (LOXL1 (5 ± 5% recovery, n = 4), LOXL2 (7 ± 1.2% recovery, n = 3) and LOXL3 (11 ± 2% recovery, n = 3)).
# [3] = Plasma protein binding; assay type: in vitro ADME; details: In vitro (human), read-out: Plasma protein binding, % bound (converted)
smiles,measurement,setting,value
"Cl.Cl.NC/C=C(\F)CS(=O)(=O)c1cccc2cccnc12.O [PXS-5505, (Z)-3-fluoro-4-(quinolin-8-ylsulfonyl)but-2-en-1-amine dihydrochloride monohydrate]",adverse side effects in mouse PDAC models,[1],no adverse side effects
same,remaining activity at 30 µM,"[2]; 0.25 h, pre-incubation 15 min",1.28%
same,remaining activity at 10 µM,"[2]; 0.25 h, pre-incubation 15 min",4.38%
same,remaining activity at 3.333 µM,"[2]; 0.25 h, pre-incubation 15 min",16%
same,remaining activity at 1.111 µM,"[2]; 0.25 h, pre-incubation 15 min",38.5%
same,remaining activity at 0.3704 µM,"[2]; 0.25 h, pre-incubation 15 min",64%
same,remaining activity at 0.12346 µM,"[2]; 0.25 h, pre-incubation 15 min",86.7%
same,remaining activity at 0.04115 µM,"[2]; 0.25 h, pre-incubation 15 min",93.6%
same,remaining activity at 0.013717 µM,"[2]; 0.25 h, pre-incubation 15 min",96.4%
same,remaining activity at 0.004572 µM,"[2]; 0.25 h, pre-incubation 15 min",99.2%
same,remaining activity at 0.001524 µM,"[2]; 0.25 h, pre-incubation 15 min",98.4%
same,remaining activity at 0.0005081 µM,"[2]; 0.25 h, pre-incubation 15 min",97.8%
same,remaining activity at 0.0001694 µM,"[2]; 0.25 h, pre-incubation 15 min",102%
same,remaining activity at 30 µM,"[2]; 0.5 h, pre-incubation 30 min",-0.266%
same,remaining activity at 10 µM,"[2]; 0.5 h, pre-incubation 30 min",-0.0903%
same,remaining activity at 3.333 µM,"[2]; 0.5 h, pre-incubation 30 min",4.21%
same,remaining activity at 1.111 µM,"[2]; 0.5 h, pre-incubation 30 min",17.3%
same,remaining activity at 0.3704 µM,"[2]; 0.5 h, pre-incubation 30 min",43.6%
same,remaining activity at 0.12346 µM,"[2]; 0.5 h, pre-incubation 30 min",72.5%
same,remaining activity at 0.04115 µM,"[2]; 0.5 h, pre-incubation 30 min",87.7%
same,remaining activity at 0.013717 µM,"[2]; 0.5 h, pre-incubation 30 min",93.2%
same,remaining activity at 0.004572 µM,"[2]; 0.5 h, pre-incubation 30 min",96.3%
same,remaining activity at 0.001524 µM,"[2]; 0.5 h, pre-incubation 30 min",109%
same,remaining activity at 0.0005081 µM,"[2]; 0.5 h, pre-incubation 30 min",99.4%
same,remaining activity at 0.0001694 µM,"[2]; 0.5 h, pre-incubation 30 min",103%
same,remaining activity at 30 µM,"[2]; 1 h, pre-incubation 60 min",-0.646%
same,remaining activity at 10 µM,"[2]; 1 h, pre-incubation 60 min",0.037%
same,remaining activity at 3.333 µM,"[2]; 1 h, pre-incubation 60 min",1.01%
same,remaining activity at 1.111 µM,"[2]; 1 h, pre-incubation 60 min",5.82%
same,remaining activity at 0.3704 µM,"[2]; 1 h, pre-incubation 60 min",23.2%
same,remaining activity at 0.12346 µM,"[2]; 1 h, pre-incubation 60 min",62.4%
same,remaining activity at 0.04115 µM,"[2]; 1 h, pre-incubation 60 min",86.9%
same,remaining activity at 0.013717 µM,"[2]; 1 h, pre-incubation 60 min",97.3%
same,remaining activity at 0.004572 µM,"[2]; 1 h, pre-incubation 60 min",101%
same,remaining activity at 0.001524 µM,"[2]; 1 h, pre-incubation 60 min",104%
same,remaining activity at 0.0005081 µM,"[2]; 1 h, pre-incubation 60 min",104%
same,remaining activity at 0.0001694 µM,"[2]; 1 h, pre-incubation 60 min",106%
same,remaining activity at 30 µM,"[2]; 2 h, pre-incubation 120 min",-0.278%
same,remaining activity at 10 µM,"[2]; 2 h, pre-incubation 120 min",1.09%
same,remaining activity at 3.333 µM,"[2]; 2 h, pre-incubation 120 min",1.27%
same,remaining activity at 1.111 µM,"[2]; 2 h, pre-incubation 120 min",2.05%
same,remaining activity at 0.3704 µM,"[2]; 2 h, pre-incubation 120 min",7.04%
same,remaining activity at 0.12346 µM,"[2]; 2 h, pre-incubation 120 min",36.3%
same,remaining activity at 0.04115 µM,"[2]; 2 h, pre-incubation 120 min",69.5%
same,remaining activity at 0.013717 µM,"[2]; 2 h, pre-incubation 120 min",87.9%
same,remaining activity at 0.004572 µM,"[2]; 2 h, pre-incubation 120 min",97.9%
same,remaining activity at 0.001524 µM,"[2]; 2 h, pre-incubation 120 min",102%
same,remaining activity at 0.0005081 µM,"[2]; 2 h, pre-incubation 120 min",102%
same,remaining activity at 0.0001694 µM,"[2]; 2 h, pre-incubation 120 min",103%
same,remaining activity at 30 µM,"[2]; 4 h, pre-incubation 240 min",-0.548%
same,remaining activity at 10 µM,"[2]; 4 h, pre-incubation 240 min",0.438%
same,remaining activity at 3.333 µM,"[2]; 4 h, pre-incubation 240 min",0.0615%
same,remaining activity at 1.111 µM,"[2]; 4 h, pre-incubation 240 min",0.566%
same,remaining activity at 0.3704 µM,"[2]; 4 h, pre-incubation 240 min",1.17%
same,remaining activity at 0.12346 µM,"[2]; 4 h, pre-incubation 240 min",14.1%
same,remaining activity at 0.04115 µM,"[2]; 4 h, pre-incubation 240 min",45.6%
same,remaining activity at 0.013717 µM,"[2]; 4 h, pre-incubation 240 min",71.8%
same,remaining activity at 0.004572 µM,"[2]; 4 h, pre-incubation 240 min",91.6%
same,remaining activity at 0.001524 µM,"[2]; 4 h, pre-incubation 240 min",95.6%
same,remaining activity at 0.0005081 µM,"[2]; 4 h, pre-incubation 240 min",101%
same,remaining activity at 0.0001694 µM,"[2]; 4 h, pre-incubation 240 min",102%
same,time-dependent inhibition of LOXL2 specific activity,[2]; pre-incubation time 0–240 min,increased potency with increased pre-incubation time
same,fraction unbound,[3],0.78

# — paper PMC10518255, “A first-in-class pan-lysyl oxidase inhibitor impairs stromal remodeling and enhances gemcitabine response and survival in pancreatic cancer” (Nature Cancer, 2023)
